Test results taken from patent US6596706B1, “Piperazine-cyclodextrin complexes” (Daiichi Pharmaceutical Co., Ltd., priority 1997, dated 2003).

Legend:
[1] = Solubility of compound (1) in aqueous SBE7-β-CD solution or water, HPLC of filtered supernatant; type: physicochemical
Method: To an aqueous solution of a β-cyclodextrin sulfobutyl ether sodium salt (product of CyDex; hereinafter may be abbreviated as SBE7-β-CD; molecular weight 2162.01; substitution ratio: 7/21 (about 33%)) (26, 40, or 72 mM; 2.5 ml) was added an excessive amount of 3-[2-[4-(3-chloro-2-methylphenyl)-1-piperadinyl]ethyl]-5,6-dimethoxy-1-(4-imidazolylmethyl)-1H-indazole,.2HCl.3.5H2O(hereinafter may be abbreviated as compound (1); molecular weight: 631.0) (400 mg). The mixture was allowed to stand for 7 days in a 25° C. water bath. During the standing period, the mixture was sonicated once a day for 15 minutes, followed by stirring for 2 minutes. On the first, fifth, and seventh days, pH of the mixture was adjusted to 4.0 by addition of adequate amount of HCl. After pH was adjusted on the seventh day, the amount of the entirety of the mixture was adjusted to 5 ml (to thereby achieve a SBE7-β-CD concentration of […]). Six days later, the mixture was subjected to centrifugal separation, to thereby collect a supernatant. […] Similarly, the solubility of the piperazine derivative (I) for water was also determined by HPLC.
(Conditions for High Performance Liquid Chromatography (HPLC))
Mobile phase: 50 mM phosphate buffer solution (pH 5.5)/acetonitrile (1:1)
Column temperature: 40° C.

red blood cells = experiment: Hemolysis activity with red blood cell suspension, absorbance at 588 nm; type: cell-based; conditions: for hemolysis activity of compound (1): 0.6 mM compound (1), more suppressed at higher cyclodextrin concentration, FIG. 1
Method: To 10 mM isotonic phosphate buffer solution (pH 6.0, 2 ml) containing SBE7-β-CD or hydroxypropyl-β-cyclodextrin (product of Nihon Shokuhin Kako; hereinafter may be abbreviated as HP-β-CD; molecular weight 1413; substitution ratio: 4.8/21 (about 23%)) at a different concentration and 0.6 mM compound (1) (concentration that permits complete hemolysis) was added a suspension (0.2 ml) of red blood cells suspension (5%). The mixture was maintained for 30 minutes at 37° C. After centrifugal separation (1000× g, 5 min), oxyhemoglobin and methohemoglobin contained in the supernatant were determined based on the absorbance at 588 nm, to thereby investigate the hemolysis activity of compound (1).

Concentration of compound (1) in supernatant ([1]; Compound (1) alone, solubility for water): 14.6 mM
Concentration of compound (1) in supernatant ([1]; SBE7-β-CD 13 mM, 25° C., pH 4.0): 19.0 mM
Concentration of compound (1) in supernatant ([1]; SBE7-β-CD 20 mM, 25° C., pH 4.0): 25.6 mM
Concentration of compound (1) in supernatant ([1]; SBE7-β-CD 36 mM, 25° C., pH 4.0): 56.7 mM
SMILES: COc1cc2c(CCN3CCN(c4cccc(Cl)c4C)CC3)nn(Cc3c[nH]cn3)c2cc1OC.Cl.Cl [compound (1), 3-[2-[4-(3-chloro-2-methylphenyl)-1-piperadinyl]ethyl]-5,6-dimethoxy-1-(4-imidazolylmethyl)-1H-indazole,.2HCl.3.5H2O]
concentration that permits complete hemolysis (red blood cells; 10 mM isotonic phosphate buffer pH 6.0, 30 minutes at 37° C.): 0.6 mM
hemolysis activity of compound (1) (red blood cells; complex formed by addition of HP-β-CD): suppressed
hemolysis activity of compound (1) (red blood cells; complex formed by addition of SBE7-β-CD): suppressed
